From patent publication US11272706B2, “Anti-resistance method” (UPL LIMITED, priority 2017, dated 2022) come the findings set out here.

The test system of one test is wheat leaf spots. Kind of test: Control of wheat leaf spots by DMI + QoI mixtures with or without mancozeb. In kind it is in vivo, Drechsiera tritici-repentis. As to conditions: various locations in Brazil. The source says:
(§1) However, its greatest contribution was proven when added to commercial blends bringing control to values of up to 80%, similar efficiency of mixtures “triazole+strobilurin” at the beginning of its use.
With the addition of mancozeb, by using the method anti-resistance described in the present invention, the control has been quite improved (33.3% also as shown in Table 8).

In the next test the test system is soybean rust. Kind of test: Field experiments at various locations in Brazil: mancozeb alone or added to commercial mixtures against soybean rust. In kind it is in vivo, Phakopsora pachyrhizi. Conditions: mancozeb applied alone.
Text: as §1
Therefore, the present invention used the same strategy as the solution to recover the original control levels (>80%) and make the useful life of the fungicides longer in controlling the target disease of the invention. This is because, mancozeb, being a multi-site protective fungicide and presenting a broad spectrum of action, will also contribute to the control of other diseases in soybean and also in wheat.
A study was conducted to determine the contribution of the mancozeb addition to mixtures of “strobilurin+triazoles.” The experiments were conducted in the field, in nine different locations, where it was determined the fungi toxicity of mancozeb to soybean rust.
Two doses were tested (1.5 and 2.0 kg/ha) with various numbers of mancozeb applications. The effect of mancozeb (1.5 kg/ha), incorporated into commercial mixtures was also tested.
The experiments were conducted with soybean cultivar Monsoy 9144 RR. Mancozeb formulation 750 WDG (water dispersible granules) was used, commercially available, for application of mancozeb according to Tables 6 and 7.

Take “manganese ethylene bis(dithiocarbamate)+Zn [mancozeb]”: in the test with wheat leaf spots, the “Control of yellow spot of wheat leaf, applied alone” value is given as “showed the efficiency”. Also, the “Control of soybean rust, applied alone” value in the test on soybean rust is given as “showed the efficiency”.
